Like-named read-outs stand apart in the source and are kept apart here.
How the values were obtained:
[1] = test system: Shc; assay: Tyrosine phosphorylation of Shc in PC12 cells; assay type: cell-based, rat; details: for tyrosine phosphorylation of Shc induced by agonist: DMPP 100 μM, muscarine 1 mM, NGF 100 ng/ml
Description: Tyrosine phosphorylation of Shc in response to bradykinin, carbachol, PMA and other stimuli was also measured. Quiescent PC12 cells were stimulated for 5 min at 37° C. with bradykinin (1 μM), carbachol (1 mM), KCl (75 mM), PMA (1.6 μM), NGF(100 ng/ml), or left unstimulated (−). The cells were also stimulated with carbachol (1 mM) or potassium chloride (75 mM) in the presence of 3 mM EGTA. Stimulations with DMPP (100 μM) or muscarine (1 mM) were preformed under the same conditions. […] The Shc proteins were immunoprecipitated with anti-Shc antibodies, the immunoprecipitates were resolved by SDS-PAGE (8%), transferred to nitrocellulose and immunoblotted with anti-phosphotyrosine antibodies.

[2] = test system: PYK2; assay: Tyrosine phosphorylation of PYK2 in PC12 cells (immunoprecipitation, anti-phosphotyrosine immunoblot); assay type: cell-based, rat; details: for tyrosine phosphorylation of PYK2: quiescent PC12 cells, carbachol 1 mM, KCl 75 mM, A23187 6 μM 15 min, bradykinin 1 μM, PMA 1.6 μM
[3] = test system: Kv1.2 channel; details: oocytes, after 20 min incubation; as previously shown (Huang et al.); cited from earlier work
[4] = test system: Kv1.2 potassium channel; assay: Tyrosine phosphorylation of Kv1.2 in transfected 293 cells; assay type: cell-based, human; details: 293 cells co-expressing Kv1.2-HA and PYK2; PMA 1.6 μM, calcium ionophore 6 μM
[5] = test system: Kv1.2 channel; assay: Kv1.2 currents in Xenopus oocytes (two microelectrode voltage clamp); assay type: cell-based, Xenopus laevis
Description: In vitro capped RNA transcripts of Kv1.2, PYK2 and PKN were synthesized from linearized plasmids DNA templates utilizing the […] mMACHINE kit (Ambion), following the supplier's protocols. The products of the transcription reaction (cRNAs) were diluted in RNAse-free water and stored at −70° C. Expression of the RNAs was done by injection of 50nl of RNA into defolliculated stage V and VI oocytes from Xenopus laevis (Iverson et al., J. Neurosc. 10, 2903-2916, 1990). The injected oocytes were incubated for 2-3 days at 20° C. in L15 solution (1:2 dilution of Gibco's Leibovitz L15 medum in H20, with 50 U/ml nystatin, 0.1 mg/ml gentamycin, 30 mM HEPES buffer, pH 7.3-7.4, filtered through a 0.45 mm membrane) Electrophysiological Recording and analysis. Ionic currents were recorded with a two microelectrode voltage-clamp as described (Iverson et al., supra). The current were low-pass filtered KHz using an 8-pole Bessel filter and stored in a 80286 microcomputer using the pclamp acquisition system (Axon Instruments). The data was analyzed with the clamp fit pro-rams of the pCIamp system (Axon Instruments). All recording were performed at room temperature ([…]). The recording chamber was continually perfused with recording solution. To avoid contamination of the oocyte by Ca+^2-activated Cl^− currents low Cl^− recording solution was used (96 mM Na+, glutamate, 2 mM K^+ glutamate, 0.5 mM CaCl2, 5 mM MgCl2, 5 mM HEPES buffer). The K+ currents were elicited in depolarizinc, steps from −100 to +40 mv in 10 mV increments every 15 seconds.
Kv1.2 currents from oocytes microinjected with either Kv1.2 mRNA, Kv1.2 and PYK2 mRNAs, or Kv1.2 and a kinase negative mutant of PYK2 mRNAs (PKN). Currents were elicited in response to depolarizing steps from −100 to +30 mV increments from a holding potential of −110 mV. Representative traces of Kv1.2 channels before and after bath application of 100 nM PMA at the annotated time (8 and 20 minutes) in the same cell.
Suppression of Kv1.2 currents in response to PMA is blocked by a kinase negative PYK2 mutant (PKN). Inhibition of Kv1.2 currents in an oocyte microinjected with Kv1.2 mRNA before and 25 minutes after treatment with PMA at 50 nM or 100 nM concentration. Recordings from an oocyte expression Kv1.2 and PYK2 or Kv1.2 and a kinase negative mutant of PYK2 under the same conditions as described above. The same protocol was utilized in both experiments.
We asked whether stimulation of PYK2 can suppress Kv1.2 currents. […] Stage V oocytes were microinjected either with Kv1.2 transcripts or with Kv1.2 together with PYK2 or PKN mRNAs. […] The expression of Kv1.2, PYK2 and PKN in the frog oocytes was confirmed by immunoblot analysis with anti-HA or anti-PYK2 antibodies.

[6] = test system: PYK2 and Fak; assay: Tyrosine phosphorylation of PYK2 and Fak in transfected 293 cells; assay type: cell-based, human; details: PMA 1.6 μM, calcium ionophore 6 μM
Description: We examined the possibility whether PYK2 can tyrosine phosphorylate the Kv1.2 channel and regulate its function. In order to test this possibility, we expressed in 293 cells the Kv1.2 protein, Kv1.2 together with PYK2, and as a control Kv1.2 with a kinase negative PYK2 mutant (PKN) or with the protein tyrosine kinase Fak. The cells were grown for 24 hours in medium containing 0.2% serum and then stimulated with PMA(1.6 μM), calcium ionophore (6 μM), or left unstimulated.
Immunoblotting analysis with phosphotyrosine anti-bodies following immunoprecipitation of PYK2, PKN and Fak by specific antibodies. […] The level of expression of the kinase negative mutant of PYK2 (PKN) was similar to the expression of wild type PYK2 or FAK. […] We next analyzed the tyrosine phosphorylation of Kv1.2 channel in each cell line.
Embryonic human kidney 293 cells were transiently transfected with different combinations of mammalian expression vectors which direct the synthesis of Kv1.2-HA, PYK2, a kinase negative PYK2 (PKN) or the protein tyrosine kinase Fak. […]
Tyrosine phosphorylation of each protein was analysed following immunoprecipitation and immunoblotting with anti-phosphotyrosine antibodies. The expression of each protein was determined by immunoblot analysis of total cell lysates from each transfection with anti-PYK2, anti-HA or anti-Fak antibodies.

[7] = test system: PYK-2; assay: Tyrosine phosphorylation of PYK-2 in NIH3T3 cells overexpressing PYK-2; assay type: cell-based; details: NIH3T3 cells overexpressing PYK-2 / PYK-2-HA; TPA 6 μM, 15 min, 37° C.
Source text: The PYK-2 cDNA cloned in pLSV was cotransfected with pSV2neo into PC12 cells and NIH3T3 in order to establish stable cell lines. G418 resistant colonies were screened by immunoprecipitating and immunoblotting.
NIH3T3 cell lines were established that overexpress the PYK-2 and the PYK-2-HA protein. […] The level of phosphorylation is not so high.

[8] = PC12 cells, 37° C., TPA 1.6 μM 15 min, bradykinin 1 μM 1 min, A23187 2 μM 15 min
[9] = PC12 cells, pertussis toxin 100 ng/ml for 20 hours

C[N+]1(C)CCN(c2ccccc2)CC1.[I-] [DMPP, 1,1-dimethyl-4-phenyl piperazinium iodide]
tyrosine phosphorylation of Shc induced by agonist [1]: induced phosphorylation of Shc

O=C(O)CN(CCOCCOCCN(CC(=O)O)CC(=O)O)CC(=O)O [EGTA, ethyleneglycol-bis (β-aminoethyl ether)-N,N,N′N′-tetraacetic acid]
effect on carbachol-induced tyrosine phosphorylation of PYK2 ([2]; PC12 cells, EGTA 3 mM (elimination of extracellular calcium)): completely blocked agonist induced tyrosine phosphorylation of PYK2
effect on LPA-induced PYK2 phosphorylation ([2]; PC12 cells, medium containing 3 mM EGTA): did not affect

[Cl-].[K+] [KCl, potassium chloride]
agonist-induced PYK2 tyrosine phosphorylation on omission of extracellular calcium ([2]; PC12 cells, no extracellular calcium or EGTA present): completely abolished PYK2 tyrosine phosphorylation
tyrosine phosphorylation of PYK2 ([2]; 37° C.): induces rapid tyrosine phosphorylation of PYK2

CCCCCCCCCCCCCC(=O)O[C@@H]1[C@@H](C)[C@@]2(O)[C@@H](C=C(CO)C[C@]3(O)C(=O)C(C)=C[C@@H]23)[C@@H]2C(C)(C)[C@]12OC(C)=O [PMA, phorbol 12-myristate 13-acetate]
agonist-induced PYK2 tyrosine phosphorylation after prolonged PMA treatment (PKC down-regulation) ([2]; PC12 cells pretreated with 100 nM PMA for 12 h): completely abolished the effect of PMA
tyrosine phosphorylation of PYK-2 in response to the stimulus alone [2, 8]: undergoes tyrosine phosphorylation
increase in the phosphorylation state of PYK2 relative to unstimulated cells ([2]; PC12 cells, LPA 2.5 mM, bradykinin 1 mM 3 min, PMA 1 mM 10 min, 37° C.): 12 fold
tyrosine phosphorylation of PYK2 ([2]; 37° C.): induced tyrosine phosphorylation of PYK2
inhibition of Kv1.2 currents [3]: 80-90%
tyrosine phosphorylation of Kv1.2 [4]: enhanced
inhibition of outward current ([5]; oocytes coexpressing Kv1.2 and PYK2, 8 min after 100 nM PMA): 95%
inhibition of outward current ([5]; oocytes expressing Kv1.2 alone, 8 min after 100 nM PMA): 25%
effect on Kv1.2 currents ([5]; oocytes treated with PMA): caused inhibition of Kv1.2 currents
effect on kinetics and voltage dependence of remaining Kv1.2 currents ([5]; oocytes, absence or presence of PYK2 expression): did not result in changes in both the kinetics or voltage dependence of the remaining currents
tyrosine phosphorylation of PYK2 and Fak [6]: induced tyrosine phosphorylation

CN1[C@@H]2CC[C@H]1C[C@@H](OC(=O)C(CO)c1ccccc1)C2 (some centres unmarked) [atropine]
effect of antagonist on carbachol-induced tyrosine phosphorylation of Shc [1]: had no effect

CNc1ccc2oc(C[C@H]3O[C@@]4(CC[C@H]3C)O[C@H]([C@H](C)C(=O)c3ccc[nH]3)[C@H](C)C[C@H]4C)nc2c1C(=O)O [calcium ionophore A23187]
tyrosine phosphorylation of PYK-2 in response to the stimulus alone [2, 8]: undergoes tyrosine phosphorylation
tyrosine phosphorylation of PYK2 ([2]; 37° C.): phosphorylated on tyrosine residues
tyrosine phosphorylation of Kv1.2 [4]: enhanced
tyrosine phosphorylation of PYK2 and Fak [6]: induced a weaker response

C[N+](C)(C)CCOC(N)=O [carbachol]
time after applying the agonist at which PYK2 became phosphorylated on tyrosine ([2]; PC12 cells, carbachol): 5 s
tyrosine phosphorylation of PYK2 ([2]; 37° C.): induces strong, tyrosine phosphorylation of PYK2
time of maximum tyrosine phosphorylation of Shc ([1]; 1 mM carbachol time course): one
dependence of agonist-induced tyrosine phosphorylation of Shc on extracellular calcium ([1]; 3 mM EGTA): dependent on the presence of extracellular calcium

CNC1(C)C2CCC(C2)C1(C)C (centres unmarked) [mecamylamine]
effect of antagonist on carbachol-induced tyrosine phosphorylation of Shc [1]: blocked the effect of carbachol

C[C@@H]1O[C@H](C[N+](C)(C)C)C[C@H]1O [muscarine]
tyrosine phosphorylation of Shc induced by agonist [1]: had no effect

Cholera toxin
effect on the TPA / bradykinin PYK-2 phosphorylation response in combination [2]: gave higher signal in combination with TPA and bradykinin
tyrosine phosphorylation of PYK-2 in response to the stimulus alone [2]: didn't cause phosphorylation of PYK-2 alone

EGF: growth factor used to stimulate NIH3T3 cells
tyrosine phosphorylation of PYK-2 [7]: undergoes tyrosine phosphorylation

NGF: nerve growth factor
tyrosine phosphorylation of Shc induced by agonist [1]: induced persistent stimulation of Shc phosphorylation
duration of stimulation of Shc phosphorylation after addition ([1]; NGF): five

PDGF
tyrosine phosphorylation of PYK-2 [7]: undergoes tyrosine phosphorylation

aFGF: growth factor used to stimulate NIH3T3 cells
tyrosine phosphorylation of PYK-2 [7]: undergoes tyrosine phosphorylation

pertussis toxin
effect on the TPA / bradykinin PYK-2 phosphorylation response in combination [2]: induced the response of TPA and bradykinin
tyrosine phosphorylation of PYK-2 in response to the stimulus alone [2, 8]: didn't cause any response alone
effect of pretreatment on LPA-induced tyrosine phosphorylation of PYK2 [2, 9]: significantly inhibited
effect of pretreatment on bradykinin or PMA induced activation of PYK2 [2, 9]: not affected

Source: patent US20030119067A1, “PYK2 related products and methods” (Sugen, Inc., priority 1996, published 2003)
